In patent publication US6753150B2, “Method for determining whether a compound is capable of inhibiting the interaction of a peptide with rage” (The Trustees of Columbia University in the City of New York, priority 1998, dated 2004):

Experiments:
sRAGE [1] = biological target: T1, sRAGE (Homo sapiens, UniProt Q15109); assay: Radioligand binding of 125I-sRAGE to immobilized AGE-modified proteins (dose response); settings: for specific binding to sRAGE/RAGE: immobilized AGE-protein, 125I-sRAGE
T1 construct: full length soluble RAGE (100 nM; specific activity 7,000-8,000 cpm/ng)
T1 sequence (Q15109 23-342 limits assumed): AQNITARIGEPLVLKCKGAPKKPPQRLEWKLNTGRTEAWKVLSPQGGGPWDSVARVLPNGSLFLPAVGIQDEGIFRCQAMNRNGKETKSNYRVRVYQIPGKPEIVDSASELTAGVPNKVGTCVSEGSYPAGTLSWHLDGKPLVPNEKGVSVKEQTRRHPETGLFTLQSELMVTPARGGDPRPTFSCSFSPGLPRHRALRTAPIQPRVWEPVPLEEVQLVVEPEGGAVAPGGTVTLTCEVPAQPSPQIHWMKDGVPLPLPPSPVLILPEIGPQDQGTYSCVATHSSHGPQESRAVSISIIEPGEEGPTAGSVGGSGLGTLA
Method: Radioligand binding studies: dose response experiments. CML- or pentosidine BSA (5 μg) was immobilized to plastic wells and radioligand binding assays performed with increasing concentrations of purified ^125-I sRAGE +/− excess unlabelled sRAGE (50-fold molar excess). Bound tracer was eluted with buffer containing NP40 (1%) and NaCl (0.15M) and the data subjected to analysis as described in the Experimental Details section.
Radioligand binding assays. […] All materials were devoid of endotoxin using the Detoxi-gel system (PIERCE®) and tested for negativity in the limulus amebocyte assay (SIGMA®). […] Specific AGE or control protein (5 μg) was loaded onto the wells of a NUNC MAXISORP® dish in sodium bicarbonate/sodium carbonate buffer (pH 9.8) overnight at 4° C. The following morning, wells were aspirated and blocked with phosphate buffered saline (with calcium/magnesium) containing bovine serum albumin (1%) for two hrs at 37° C. Wells were then washed once with phosphate buffered saline (without calcium/magnesium) containing Tween 20 (0.05%); 0.150 ml/well. A radioligand binding assay was then performed in phosphate buffered saline containing 0.2% bovine serum albumin for 2 hrs at 37° C. utilizing radiolabelled (^125I; using Iodogen (Pierce)) full length soluble RAGE (100 nM; specific activity 7,000-8,000 cpm/ng) in the presence or absence of unlabelled soluble RAGE (50×molar excess) or the indicated molar excess of competitor. Wells were then eluted after washing as above with buffer containing NP-40 (1%) and NaCl (0.15M). The material retrieved was then counted in a gamma counter (LKB). In certain experiments, antibodies or excess soluble RAGE were employed as indicated to test their ability to compete in the indicated assays.
Radioligand binding studies. […] Radioligand binding assays were performed in which CML-BSA, pentosidine-BSA or methylglyoxal-human serum albumin was adsorbed to plastic wells. Radioligand binding assays were performed as described and equilibrium binding data was analyzed according to the equation of Klotz and Hunston.

sRAGE [2] = biological target: T1, sRAGE; assay: Radioligand competition: 125I-sRAGE (100 nM) binding to immobilized CML-BSA with competitors; settings: competitor in excess
Method: Radioligand binding studies: competition experiments. CML-BSA was immobilized to wells; binding was performed with ^125-I sRAGE (100 nM) with the indicated competitors. […] Percent maximal binding is reported compared to binding to immobilized CML-BSA without competitor (100%).
Radioligand binding studies: CML-adducts interact with the V-type Ig domain of RAGE. CML-BSA was immobilized to wells; binding was performed with ^125-I sRAGE (100 nM) in the presence or absence of excess unlabelled (100-fold) V-type Ig domain, C1 Ig domain or C2 Ig domain. Percent maximal binding is reported compared to binding to immobilized CML-BSA without competitor (100%).
Radioligand binding assays. […] All materials were devoid of endotoxin using the Detoxi-gel system (PIERCE®) and tested for negativity in the limulus amebocyte assay (SIGMA®). Gas chromatography-mass spectroscopy and HPLC analyses were performed and verified the identity of the prepared AGES. Specific AGE or control protein (5 μg) was loaded onto the wells of a NUNC MAXISORP® dish in sodium bicarbonate/sodium carbonate buffer (pH 9.8) overnight at 4° C. […] The material retrieved was then counted in a gamma counter (LKB). […]
Radioligand binding studies. […] Radioligand binding assays were performed as described and equilibrium binding data was analyzed according to the equation of Klotz and Hunston.

RAGE = RAGE (Homo sapiens, UniProt Q15109); assay: Binding of CML-modified proteins to immobilized RAGE (Example 2); settings: for Kd: dose-dependent and saturable
Chain of RAGE (Q15109 23-404): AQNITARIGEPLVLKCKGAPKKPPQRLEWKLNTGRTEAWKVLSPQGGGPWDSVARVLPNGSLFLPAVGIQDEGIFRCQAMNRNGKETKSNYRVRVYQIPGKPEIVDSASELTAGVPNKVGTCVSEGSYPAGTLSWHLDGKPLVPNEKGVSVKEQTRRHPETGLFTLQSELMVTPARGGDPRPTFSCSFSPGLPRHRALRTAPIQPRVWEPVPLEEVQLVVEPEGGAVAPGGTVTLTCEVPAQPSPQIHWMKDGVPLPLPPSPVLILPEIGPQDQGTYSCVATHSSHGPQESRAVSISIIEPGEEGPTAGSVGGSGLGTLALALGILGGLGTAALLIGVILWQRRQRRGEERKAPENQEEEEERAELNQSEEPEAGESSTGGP
From the text: (§1) Advanced glycation endproducts (AGEs) are heterogeneous compounds that form in hyperglycemia, highly-oxidized environments and renal failure. AGEs accumulate in the plasma and tissues of patients with diabetes; their presence has been linked to the development of medical complications. Interaction of AGEs with Receptor for AGE ([…]) activates cells such as endothelial cells (Ecs) and monocytes (Mps) in a manner favoring the development of vascular/inflammatory cell complications. AGEs consist of structures such as carboxymethyl-lysine and pentosidine (both free and protein-bound forms). To begin to delineate which AGE forms interact with RAGE, we prepared free CML and pentosidine, as well as CML- and pentosidine bovine serum albumin (BSA) and ovalbumin (OVA).

VCAM-1 = assay: Infusion into normal mice, Northern analysis of VCAM-1 mRNA in lung; format: in vivo; settings: 100 μg infused into CD1 mice, six hrs, Northern blot
Method: FIG. 7. In vivo studies: infusion of CML-BSA into mice modulates […] expression. CML-BSA (lane 2) or native BSA (lane 1) (both 100 μg) was infused into normal CD1 mice. LPS (100 μg) was infused as positive control (lane 3). Six hrs later, mice were humanely sacrificed and lungs rapidly removed for preparation of RNA. Northern analysis was performed as described above for VCAM-1; membranes were then stripped and reprobed with ^32-P-labelled cDNA for G3PDH.
Northern blot analysis. Northern blot analysis for VCAM-1 and G3PDH were performed as previously described (19).
Infusion of CML-BSA into normal mice increases mRNA for Vascular Cell Adhesion Molecule-1.

NF-κB [3] = assay: NF-κB activation in monocytes (MPs) (Example 2); format: cell-based
From the text: as §1

[4] = tested on: Human umbilical vein endothelial cells (HUVEC); assay: Molt-4 binding assay on stimulated endothelial cells (cell surface VCAM-1 functional activity); format: cell-based; settings: for binding of Molt-4 cells to Ecs: Example 2
Method: FIG. 4. Cellular activation studies: endothelial cells. HUVEC were incubated in the presence of the indicated mediators for 6 hrs. Where indicated, certain cells were preincubated with anti-RAGE/preimmune IgG for one hour. Cells were washed and incubated with ^51Cr-Molt-4 cells (bear VLA-4) for 1 hr. Bound radioactivity was eluted in the presence of SDS (1%) and counted in a gamma counter. Results are reported compared with Molt-4 cell binding to cells exposed to native ovalbumin (defined as “1”).
Molt-4 binding assays. Molt-4 binding assays were performed according to the general method of Marui et al (32). Human umbilical vein endothelial cells were stimulated with the indicated compound in the presence or absence of competitors for 6 hrs at 37° C. Molt-4 cells, which express VLA-4, ligand for VCAM-1, (ATCC) were grown in RPMI 1640 containing fetal bovine serum (10%). Radio labelling was accomplished by incubating Molt-4 cells (2×10^7 cells/ml) for 16 hrs at 37° C. in the above medium containing ^51-Cr (0.2 mCi/ml). Before the binding assay, unincorporated radioactivity was removed by washing cells with Hank's balanced salt solution, and then resuspending them in RPMI containing fetal bovine serum (10%) at 4×10^6 cells/ml. Molt-4 cells were incubated with endothelial cells for one hr at 37° C., and nonadherent cells were removed by washing twice with Medium 199 containing fetal bovine serum (1%); adherent cells were solubilized in SDS (1%), and radioactivity counted in a gamma counter.
To test if incubation of CML-ovalbumin or pentosidine-ovalbumin activated EC, specific AGEs were rendered free of endotoxin (Detoxigel columns (PIERCE®)) and tested for absence of endotoxin by limulus amebocyte assay (SIGMA®).

[5] = tested on: human peripheral blood-derived mononuclear phagocytes; assay: Monocyte chemotaxis assay in modified chemotaxis chambers; format: cell-based; settings: mediator in lower wells, three hrs
Method: FIG. 5. Cellular activation studies: mononuclear phagocytes. Human monocytes (5×10^4) were placed in the upper wells of modified chemotaxis chambers with the indicated mediators in the lower wells for three hrs. Membranes were then stained with Giemsa and cells that migrated through the membrane toward the chemotactic stimulus counted per hpf.
Chenotaxis assays. Chemotaxis assays, performed in 48-well microchemotaxis chambers (Neuro-Probe) containing polycarbonate membranes were performed as previously described (15). In these studies, human peripheral blood-derived mononuclear phagocytes, which bear cell surface RAGE, were employed.
Mononuclear phagocytes. To determine if CML-ovalbumin mediated increased human peripheral blood-derived monocyte chemotaxis, experiments were performed in modified chemotaxis chambers as described above.

NF-κB [6] = assay: Electrophoretic mobility shift assay for NF-κB in endothelial cells; format: cell-based, human; settings: for nuclear translocation / activation of NF-κB in HUVEC: 6 hrs, AGEs at 50 μg/ml; for activation of NF-κB in Ecs: Example 2
Method: FIG. 6. Electrophoretic mobility shift assay. Human umbilical vein endothelial cells (HUVEC) were incubated with mediators for 6 hrs; nuclear extracts were prepared and electrophoretic mobility shift assays performed with ^32P-labelled probe for NF-κB. Lanes contain mediators as above (all AGEs were added at 50 μg/ml). Lanes contain: lane 1, CML-ovalbumin; lane 2, native ovalbumin; lane 3, pentosidine ovalbumin; lane 4, nonimmune IgG and CML ovalbumin; lane 5, anti-RAGE IgG: 7 μg/ml; lane 6; anti-RAGE IgG: 70 μg/ml; lane 7: CML-ovalbumin/100-fold excess unlabelled NF-κB. Supershift assays (lane 8: anti-p50 IgG; lane 9:anti-p65 IgG; lane 10:both anti-p50 IgG and anti-p65 IgG; lane 11: preimmune IgG), all + CML-ovalbumin. Lane 12:CML-ovalbumin: vector alone/13:tail-deleted RAGE.
Electrophoretic mobility shift assays (EMSA). Nuclear extracts were prepared from HUVECs by the method of Schreiber (33). Protein concentration was determined using the Bradford reagent (BIO-RAD®). Double-stranded oligonucleotides representing a portion of the human VCAM-1 promoter containing an NF-κB site were synthesized (Life Technologies). Oligonucleotides were used as probe as follows: NF-κB: 5′[…]3′ (SEQ ID No. 1). Probes were 5′-end labelled with g-[^32P] ATP and polynucleotide kinase. Each reaction contained 10 fmol of probe and 2-5 microliter (1.5 μg) of nuclear extract. Binding reactions were performed in buffer as previously described (19). Complexes were resolved on nondenaturing polyacrylamide gels (6%) in tris (50 mM), borate (45 mM), and EDTA (0.5 mM), ([…]; final pH 7.5). Samples were subjected to electrophoresis for 2 hrs at 10 V/cm. For supershift assays, complexes were preincubated with anti-p65 IgG, anti-p50 IgG or both together, or nonimmune IgG (7.5 μg/ml; 2 hrs 37° C.) in a total reaction volume of 20 μl.
We tested the ability of CML-ovalbumin to ligate RAGE and activate cell signalling pathways.

N[C@@H](CCCCNCC(=O)O)C(=O)O [free CML, N^e-(Carboxymethyl)lysine]
specific binding to sRAGE/RAGE (sRAGE [1]): not | effect on binding of 125I-sRAGE to immobilized CML-BSA (sRAGE [2]): no effect | effect on binding of CML-BSA and CML-OVA to immobilized RAGE (RAGE): not

N[C@@H](CCCCn1cccc2nc(NCCC[C@H](N)C(=O)O)nc1-2)C(=O)O [free pentosidine, Pentosidine]
effect on binding of 125I-sRAGE to immobilized CML-BSA (sRAGE [2]): no effect | effect on binding of CML-BSA and CML-OVA to immobilized RAGE (RAGE): not

CML-BSA: carboxymethyl-lysine-modified bovine serum albumin, a synthetic AGE
Kd (sRAGE [1]; read-out: KD of binding to sRAGE, AGE-protein (5 μg) immobilized on wells, increasing 125I-sRAGE +/- 50-fold excess unlabelled sRAGE): ~76 nM | mRNA for VCAM-1 in lung tissue (VCAM-1): increased mRNA for VCAM-1 | Kd (RAGE): 60 nM | activation of NF-κB in MPs (NF-κB [3]): activated NF-κB

CML-ovalbumin: carboxymethyl-lysine-modified ovalbumin, a synthetic AGE
binding of Molt-4 cells to Ecs [4]: increased binding of Molt-4 cells | increase in binding of 51Cr-Molt 4 cells to HUVEC ([4]; HUVEC exposed 6 hrs, relative to native ovalbumin (defined as 1)): 2.3 fold | monocyte chemotaxis [5]: stimulated monocyte chemotaxis in a dose-dependent manner | nuclear translocation / activation of NF-κB in HUVEC (NF-κB [6]): increased nuclear translocation of NF-κB | activation of NF-κB in Ecs (NF-κB [6]): activated NF-κB | activation of NF-κB in MPs (NF-κB [3]): activated NF-κB

native ovalbumin: unmodified ovalbumin control protein
effect on binding of 51Cr-Molt 4 cells to HUVEC ([4]; HUVEC exposed 6 hrs): without effect | monocyte chemotaxis [5]: without effect | nuclear translocation / activation of NF-κB in HUVEC (NF-κB [6]): not

pentosidine-BSA: pentosidine-modified bovine serum albumin
specific binding to sRAGE/RAGE (sRAGE [1]): no specific binding | binding of Molt-4 cells to Ecs [4]: without effect | monocyte chemotaxis [5]: without effect | activation of NF-κB in Ecs (NF-κB [6]): without effect | activation of NF-κB in MPs (NF-κB [3]): without effect

pentosidine-ovalbumin: pentosidine-modified ovalbumin
effect on binding of 51Cr-Molt 4 cells to HUVEC ([4]; HUVEC exposed 6 hrs): without effect | nuclear translocation / activation of NF-κB in HUVEC (NF-κB [6]): not

unmodified BSA: unmodified bovine serum albumin control protein
mRNA for VCAM-1 in lung tissue (VCAM-1): without effect | effect on binding of CML-BSA and CML-OVA to immobilized RAGE (RAGE): not

B1: CML-ovalbumin: carboxymethyl-lysine-modified ovalbumin, a synthetic AGE (protein, UniProt P01012 2-386, looked up)
Ovalbumin: GSIGAASMEFCFDVFKELKVHHANENIFYCPIAIMSALAMVYLGAKDSTRTQINKVVRFDKLPGFGDSIEAQCGTSVNVHSSLRDILNQITKPNDVYSFSLASRLYAEERYPILPEYLQCVKELYRGGLEPINFQTAADQARELINSWVESQTNGIIRNVLQPSSVDSQTAMVLVNAIVFKGLWEKAFKDEDTQAMPFRVTEQESKPVQMMYQIGLFRVASMASEKMKILELPFASGTMSMLVLLPDEVSGLEQLESIINFEKLTEWTSSNVMEERKIKVYLPRMKMEEKYNLTSVLMAMGITDVFSSSANLSGISSAESLKISQAVHAAHAEINEAGREVVGSAEAGVDAASVSEEFRADHPFLFCIKHIATNAVLFFGRCVSP
modifications: carboxymethyl-lysine modified
notes: carboxymethyl-lysine-modified ovalbumin, a synthetic AGE
Kd (RAGE): 60 nM

B2: native ovalbumin: unmodified ovalbumin control protein (protein, UniProt P01012 2-386, looked up)
Ovalbumin: B1 Ovalbumin
effect on binding of CML-BSA and CML-OVA to immobilized RAGE (RAGE): not
